# Results taken from patent US20180161459A1, “Methods of Screening for Drugs to Prevent Noise-Induced Hearing Loss” (Sound Pharmaceuticals Incorporated, priority 2015, published 2018).
# What was measured:
# human subjects [1] = experiment: Calibrated sound challenge: temporary threshold shift (TTS) by serial pure tone audiometry, randomized double-blinded placebo-controlled Phase 2 study; format: in vivo
# Method: (§1) A study was performed to evaluate the safety and efficacy of an orally delivered candidate composition in human subjects. The candidate composition ebselen (aka. SPI-1005) was evaluated for efficacy using the methods disclosed herein. Ebselen or placebo was administered in a randomized double-blinded study to subjects, who were then exposed to a calibrated sound or noise challenge. Post-sound exposure pure tone audiometry was compared with baseline (i.e., immediately pre-sound exposure) testing to determine group mean level hearing threshold shift changes between treated and placebo groups. The single center, randomized, double-blinded, placebo-controlled study enrolled 83 subjects, all between the ages of 18 and 31. All enrolled subjects ranged from having slight hearing loss (less than or equal to 25 dB HL) to normal hearing.
# Each subject was instructed to avoid non-occupational sound exposure (e.g., concerts, firearms, fireworks, power tools) during the 24-hour period preceding baseline testing and throughout the duration of the study. Vital signs (i.e., heart rate, blood pressure, respirations, temperature) were within normal limits for each subject. Subjects had conventional audiologic assessments at baseline consisting of: (a) pure tone audiometry to confirm that subjects had symmetric hearing with air conduction thresholds no worse than 25 dB HL at frequencies between 0.25 to 8 kHz bilaterally, (b) no significant threshold asymmetry (i.e. greater than 15 dB) between any subject's ears at any tested frequency,(c) no significant air-bone gaps (i.e. greater than 10 dB). Bone conduction testing with masking as conducted at screening at 250, 500, 1000, 2000, or 4000 Hz if the air-conduction threshold was greater than 15 dB HL, and (d) Type A tympanograms bilaterally, defined as a range of −140 to +40 daPa based on the 90% range for adults. Subjects with pure tone audiometry hearing thresholds>25 dB HL at any tested frequency (250, 500, 1000, 2000, 3000, 4000, 6000, and 8000 Hz) for either ear were excluded from the study.
# Ebselen, or 2-phenyl-1,2-benzisoselenazol-3 (2H)-one, was selected as a candidate composition. The ebselen formulation was a capsule containing 200 mg of ebselen and 150 mg of the excipients microcrystalline cellulose, sodium croscarmellose, and magnesium sterate. Each subject received ebselen at one of three dosages (either 200 mg, 400 mg, or 600 mg) or received a placebo, delivered orally twice daily for four days, beginning two days prior to exposure to a controlled sound and continuing on the day of and on the day following the exposure to the controlled sound. The study was randomized to assign each subject to a treatment or placebo group. All subjects took 3 capsules in the morning (AM) and 3 capsules in the evening (PM) (each capsule either contained 200 mg ebselen or placebo), ideally 12 hours apart.
# On Day 3 of the ebselen treatment, subjects underwent audiometric testing immediately prior to sound-exposure to establish their baseline hearing levels. Subjects listened to a 100 dBA SPL sound exposure delivered via insert earphones from a Personal Music Player (PMP, specifically an iPod®) for 4 continuous hours. The sound exposure method was similar to that discussed in Le Prell, C. et al., Ear & Hearing 33:e44-e58, 2012, hereby incorporated by reference in its entirety. The music levels were measured using Bruel & Kjaer type 4157 artificial ear couplers. Subjects listened to sound from music playlists with a choice of rock or pop music. No changes in volume or duration of the sound exposure were permitted. At 15 minutes, 75 minutes, 135 minutes, 195 minutes, 24 hours, and 1 week after sound exposure, subjects were tested for pure tone audiometric thresholds. Serial pure tone audiometry determined the incidence (greater or equal to 10 dB HL), severity (dB HL) and duration (up to 1 week post sound exposure) of the TTS. Audiometric data was collected at 250, 500, 1000, 2000, 3000, 4000, 6000, and 8000 Hz. […]
# human subjects [2] = experiment: Safety and tolerability of orally delivered ebselen in the Phase 2 study; format: in vivo; settings: oral 200, 400 or 600 mg twice daily for four days; CBC, Chemistry-20, Chest X-ray
# Method: as §1
# Ebselen, or 2-phenyl-1,2-benzisoselenazol-3 (2H)-one, was selected as a candidate composition. […]
# Side effects of the ebselen delivery were analyzed. Clinical signs and symptoms from physical exam were evaluated, such as shortness of breath, wheezing, coughing, hemoptysis, resting pulse oximetry, chest X-rays, and laboratory findings such as hematology, chemistry, and urinalysis. Exposure to ebselen was quantified from plasma by LC-MS/MS. […]
structure (smiles),measurement,setting,value
"O=c1c2ccccc2[se]n1-c1ccccc1 [ebselen, 2-phenyl-1,2-benzisoselenazol-3 (2H)-one]",TTS at 4 kHz vs. placebo at later time points,"human subjects [1]; 1.25, 2.25 and 3.25 hours post sound exposure, 400 mg dose group, ITT",significantly reduced
same,TTS incidence (subjects with greater or equal to 10 dB HL shift in either ear),"human subjects [1]; 15 minutes post 100 dBA SPL 4 h sound exposure, oral twice daily for four days, 600 mg dose most effective, ITT, placebo 60%",20%
same,"TTS averaged across all tested frequencies, or mean across 3, 4, 6 kHz or 4, 6, 8 kHz","human subjects [1]; 15 minutes post sound exposure, 400 mg dose most effective, ITT",clinically relevant reductions
same,TTS severity at 4 kHz,"human subjects [1]; 15 minutes post sound exposure, oral twice daily for four days, 400 mg dose most effective, ITT, placebo 4.1",1.3 dB HL
same,Incidence of subjects that returned to baseline hearing within 24 hours,"human subjects [1]; all ebselen treatment groups compared with placebo, FIG. 2",greater incidence of subjects that returned to baseline hearing within 24 hours
same,TTS duration,"human subjects [1]; oral twice daily for four days, placebo 24 hrs",1.3 h
same,Tolerability / drug-related adverse events,human subjects [2],well-tolerated with no drug-related adverse events
